Several values for one entry are separate records, joined by “and”; a condition that tells them apart may be missing. Equal values may be shown once. Entries after “also recorded” stand apart in the source; their conditions may differ. Where a name gives a salt, the structure may show the parent alone.
Tests used:
Type in all cases: in vivo
Set-up in all cases: key to Dunnett test vs control group: * indicates a significant difference for p < 0.05 (Dunnett test); ns indicates an insignificant result
Swiss mice CD1 [1] = experiment: forced swim test, Alverine administered intraperitoneally to mice (Example 1); conditions: for immobility time, individual animals / immobility time, Mean: 30 minutes prior to the test; for immobility time, Mean: N = 10
Procedure: To establish the advantages according to the present invention a study was carried out to 50 mice. They were divided into 5 groups of 10 mice each. These are Swiss mice CD1 (CD-1® (ICR) IGS (Charles River France) weighing between 25 and 35 g.
They were placed in a room at a temperature of between 19.5 and 24.5° C. and a relative humidity of 45 to 65% with a light/dark cycle of 12 h, ad libitum access to filtered water and pellets of laboratory-standard food.
They are placed 15 to 20 per cage, over an acclimatising period of at least 5 days prior to the tests. They are identified by marking on the fur.
The substance to be tested is Alverine citrate (Sigma, in the form of dry powder, with a salt/base ratio of 1.68) comparatively to imipramine chlorhydrate (Sigma, in the form of dry powder, with a salt/base ratio of 1.13).
The first group is the control group: it is treated only by excipient.
The second group is treated with Alverine at a dose of 3 mg/kg
The third group is treated with Alverine at a dose of 10 mg/kg
The fourth group is treated with Alverine at a dose of 30 mg/kg
The fifth group is treated with imipramine (tricyclic antidepressant) at a dose of 10 mg/kg
The doses are expressed in terms of free active substances. The substances are prepared extemporaneously in the excipient. The treatments are administered 30 minutes prior to the test in a coded and random order intraperitoneally with a volume of 10 ml/kg.
Thirty minutes following administration the five groups of mice are subjected to the forced swim test, in a vertical Plexiglas cylinder (height 24 cm, diameter 9 cm) containing water (height 6 cm, temperature 18-22° C.). The total duration of immobility is measured over the last four minutes of the test, six minutes in total. A mouse is deemed immobile when it ceases struggling and floats in the water without movements superfluous to those allowing it to keep its head above water. A drop in immobility time is the reflection of an antidepressant effect.
The forced swim test is a pre-clinical behavioural model, which has good predictive validity and is widely employed for determining the efficacy of antidepressant medications (Borsini and Meli, 1988).
The results are expressed in total duration of immobility in seconds and as a percentage of variation of the total duration of immobility calculated from the average value of the control group.
The statistical significance between the treated groups and the control group is determined by a Dunnett test using the residual variation according to analysis of the variance (P<0.05). The data are analysed using <<SigmaStat>> software.

Swiss mice CD1 [2] = experiment: forced swim test, Alverine administered orally to mice (Example 2); conditions: for immobility time, individual animals / immobility time, Mean: 60 minutes prior to the test; for immobility time, Mean: N = 10
Swiss mice CD1 [3] = experiment: forced swim test, Alverine and imipramine administered intraperitoneally to mice (Example 3, first test); conditions: for immobility time, individual animals / immobility time, Mean: 30 minutes prior to the test; for immobility time, Mean: n = 10
Procedure: These are Swiss mice CD1 (CD-1® (ICR) IGS (Charles River France) weighing between 25 and 35 g. […] They are placed 15 to 20 per cage, over an acclimatising period of at least 5 days prior to the tests. They are identified by marking on the fur. […] The mice were divided into two test comprising six groups of 10 mice each. For the first test: The first group is the control group: it is treated only by excipient. The second group is treated with imipramine at a dose of 3 mg/kg The third group is treated with Alverine at a dose of 3 mg/kg The fourth group is treated with Alverine at a dose of 3 mg/kg and imipramine at a dose of 3 mg/kg The fifth group is treated with imipramine at a dose of 10 mg/kg […] The doses are expressed in terms of free active substances. The test substances are prepared extemporaneously in a saline solution. The treatments are co-administered 30 minutes prior to the test in a coded and random order intraperitoneally with a volume of 10 ml/kg (5 ml/kg for each administration). Thirty minutes following administration the six groups of mice are subjected to the forced swim test, in a vertical Plexiglas cylinder (height 24 cm, diameter 9 cm) containing water (height 6 cm, temperature 18-22° C.). The total duration of immobility is measured over the last four minutes of the test, six minutes in total. A mouse is deemed immobile when it ceases struggling and floats in the water without movements superfluous to those allowing it to keep its head above water. A drop in immobility time is the reflection of an antidepressant effect. The forced swim test is a pre-clinical behavioural model, which has good predictive validity and is widely employed for determining the efficacy of antidepressant medications (Borsini and Meli, 1988). The results are expressed in total duration of immobility in seconds and as a percentage of variation of the total duration of immobility calculated from the average value of the control group. The statistical significance between two treated groups is determined by using a Student test (P<0.05) The data are analysed using <<SigmaStat>> software.

[4] = Alverine citrate 3 mg/kg intraperitoneally
[5] = Alverine citrate 10 mg/kg intraperitoneally
[6] = Alverine citrate 30 mg/kg intraperitoneally
[7] = Alverine citrate 10 mg/kg orally
[8] = Alverine citrate 30 mg/kg orally
[9] = Alverine citrate 100 mg/kg orally
[10] = Alverine 3 mg/kg intraperitoneally
[11] = Alverine 10 mg/kg intraperitoneally

## CCN(CCCc1ccccc1)CCCc1ccccc1 [Alverine citrate, N-ethyl-3,3′-diphenyldipropylamine]
Swiss mice CD1 [1]; 10 mg/kg intraperitoneally
  immobility time compared with mice treated at 10 mg/kg of imipramine: comparable
Swiss mice CD1 [1]; [4]
  % of variation of immobility time vs control group: −15%
  Dunnett test vs control group: ns
  immobility time, individual animals: 128 s and 82 s and 151 s and 132 s and 127 s and 88 s and 85 s and 99 s and 93 s and 118 s
  immobility time, Mean: 110.3 s
Swiss mice CD1 [1]; [5]
  % of variation of immobility time vs control group: −53%
  Dunnett test vs control group: * (* indicates a significant difference for p < 0.05 (Dunnett test))
  immobility time, individual animals: 29 s and 86 s and 28 s and 30 s and 90 s and 99 s and 65 s and 129 s and 57 s and 3 s
  immobility time, Mean: 61.6 s
Swiss mice CD1 [1]; [6]
  % of variation of immobility time vs control group: −80%
  Dunnett test vs control group: * (* indicates a significant difference for p < 0.05 (Dunnett test))
  immobility time, individual animals: 97 sec and 3 sec and 66 sec and 36 sec and 0 sec and 15 sec and 7 sec (2×) and 16 sec and 12 sec
  immobility time, Mean: 25.9 s
Swiss mice CD1 [1]; injected intraperitoneally, 3 to 30 mg/kg
  antidepressant effect (in words): antidepressant effect related to the dose; also recorded: significant antidepressant effect in mice and equal to that of Imipramine, at comparable doses
Swiss mice CD1 [2]; [7]
  % of variation of immobility time vs control group: −30%
  Dunnett test vs control group: ns
  immobility time, individual animals: 86 s and 95 s and 104 s and 111 s and 126 s and 108 s and 78 s and 115 s and 106 s and 113 s
  immobility time, Mean: 104.2 s
Swiss mice CD1 [2]; [8]
  % of variation of immobility time vs control group: −43%
  Dunnett test vs control group: * (* indicates a significant difference for p < 0.05 (Dunnett test))
  immobility time, individual animals: 104 sec and 80 sec and 64 sec and 70 sec and 105 sec (3×) and 41 sec and 63 sec and 113 sec
  immobility time, Mean: 85.0 s
Swiss mice CD1 [2]; [9]
  % of variation of immobility time vs control group: −60%
  Dunnett test vs control group: * (* indicates a significant difference for p < 0.05 (Dunnett test))
  immobility time, individual animals: 52 s and 129 s and 67 s and 6 s and 105 s and 75 s and 81 s and 5 s and 37 s and 32 s
  immobility time, Mean: 58.9 s
Swiss mice CD1 [2]; administered orally, 10 to 100 mg/kg
  antidepressant effect (in words): antidepressant effect related to the dose; also recorded: significant antidepressant effect in mice
Swiss mice CD1 [3]; [10]
  % of variation of immobility time vs control group: −30%
  Dunnett test vs control group: ns
  immobility time, individual animals: 108 s and 134 s and 113 s and 65 s and 85 s and 73 s and 79 s and 125 s and 95 s and 140 s
  immobility time, Mean: 101.7 s
Swiss mice CD1 [3]; [11]
  % of variation of immobility time vs control group: −70%
  Dunnett test vs control group: * (* indicates a significant difference for p < 0.05 (Dunnett test))
  immobility time, individual animals: 28 s and 10 s and 1 s and 74 s and 22 s and 70 s and 69 s and 67 s and 42 s and 57 s
  immobility time, Mean: 44.0 s
Swiss mice CD1 [3]; tested alone at 3 mg/kg intraperitoneally
  decrease in the duration of immobilisation as compared to the control group (in words): statistically insignificant decrease
